Laboratory results taken from US8084479B2, “Thiazole compounds and methods of use” (Amgen Inc., priority 2006, dated 2011).
Where a name gives a salt, the structure may show the parent alone.

Target: PKBα (Homo sapiens, UniProt P31749)
Experiment: PKB kinase assay (P33-labeled ATP, peptide substrate, filter plate)
Type: biochemical
Conditions: PKBα enzyme (full length or kinase domain with pleckstrin domain deleted)
Source text: The kinase assay for evaluating PKB activity comprises active PKB enzymes, a PKB specific substrate, and P^33-labeled ATP. […] The phosphorylated substrate was captured by a phosphocellulose membrane filter plate (MLLIPORE) and measured by a Wallac Microbeta liquid scintillation counter (Perkin Elmer).

PKBα, sequence (P31749 118-480 limits assumed): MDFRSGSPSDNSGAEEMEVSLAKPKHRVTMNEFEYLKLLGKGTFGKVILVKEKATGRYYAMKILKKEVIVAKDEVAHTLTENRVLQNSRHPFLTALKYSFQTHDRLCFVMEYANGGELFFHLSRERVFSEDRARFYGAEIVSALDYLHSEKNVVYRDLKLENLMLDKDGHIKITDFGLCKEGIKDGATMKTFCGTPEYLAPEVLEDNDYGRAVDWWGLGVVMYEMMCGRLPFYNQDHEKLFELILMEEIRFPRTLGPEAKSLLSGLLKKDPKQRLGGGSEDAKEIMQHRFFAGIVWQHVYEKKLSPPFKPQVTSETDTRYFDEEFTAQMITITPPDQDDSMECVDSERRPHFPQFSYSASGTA

| SMILES | IC50 [nM] |
| --- | --- |
| N[C@H](CNc1ncc(-c2ccc3c(c2)CC(=O)N3)s1)Cc1ccc(Cl)cc1Cl [Example 113, 5-(2-((S)-2-Amino-3-(2,4-dichlorophenyl)propylamino)thiazol-5-yl)indolin-2-one] | 50 to 1000 |
| Cn1c(=O)[nH]c2ccc(-c3cnc(NC[C@@H](N)Cc4ccc(C(F)(F)F)cc4)s3)cc21 [Example 57, 6-(2-((S)-2-amino-3-(4-(trifluoromethyl)phenyl)propylamino)thiazol-5-yl)-1-methyl-1H-benzo[d]imidazol-2(3H)-one] | < 50 |
| CC(O)[C@@H](c1ccc(C(F)(F)F)cc1)[C@H](N)CNc1ncc(-c2ccc3c(c2)CC(=O)N3)s1 (stereo partly drawn) [Example 243, 5-(2-((2S,3S)-2-amino-4-hydroxy-3-(4-(trifluoromethyl)phenyl)pentylamino)thiazol-5-yl)indolin-2-one] | < 50 |
| N[C@H](CNc1ncc(-c2ccc3[nH]c(=O)oc3c2)s1)Cc1ccc(Cl)cc1 [Example 55, 6-(2-((S)-2-Amino-3-(4-chlorophenyl)propylamino)thiazol-5-yl)benzo[d]oxazol-2(3H)-one] | < 50 |
| C[C@@H](c1ccccc1)[C@H](N)CNc1ncc(-c2ccc3[nH]c(=O)n(C)c3c2)s1 [Example 89, 6-(2-((2S,3S)-2-Amino-3-phenylbutylamino)thiazol-5-yl)-1-methyl-1H-benzo[d]imidazol-2(3H)-one] | 1000 to 10000 |
| N[C@H](CNc1ncc(-c2ccc3c(c2)/C(=C\c2cnc[nH]2)C(=O)N3)s1)Cc1c[nH]c2ccccc12 (stereo in doubt) [Example 73, (E)-3-((1H-imidazol-5-yl)methylene)-6-(2-((S)-2-amino-3-(1H-indol-3-yl)propylamino)thiazol-5-yl)indolin-2-one ditrifluoroacetates] | 50 to 1000 |
| N[C@H](CNc1nc(CO)c(-c2ccc3c(c2)CC(=O)N3)s1)Cc1ccc(C(F)(F)F)cc1 [Example 123, 5-(2-((S)-2-Amino-3-(4-(trifluoromethyl)phenyl)propylamino)-4-(hydroxymethyl)thiazol-5-yl)indolin-2-one] | < 50 |
| CC#Cc1nc(NC[C@@H](N)Cc2ccc(C(F)(F)F)cc2)sc1-c1ccc2c(c1)CC(=O)N2 [Example 152, 5-(2-((S)-2-amino-3-(4-(trifluoromethyl)phenyl)propylamino)-4-(prop-1-ynyl)thiazol-5-yl)indolin-2-one] | < 50 |
| COCc1nc(NC[C@@H](N)Cc2ccc(C(F)(F)F)cc2)sc1-c1ccc2cnccc2c1 [Example 13, N—((S)-2-amino-3-(4-(trifluoromethyl)phenyl)propyl)-5-(isoquinolin-6-yl)-4-(methoxymethyl)thiazol-2-amine] | < 50 |
| COCc1nc(N(C[C@H](Cc2ccc(C(F)(F)F)cc2)NCCN2CCOCC2)C(C)=O)sc1-c1nc2ccncc2s1 [Example 33, N-(4-(methoxymethyl)-5-(thiazolo[5,4-c]pyridin-2-yl)thiazol-2-yl)-N—((S)-2-(2-morpholinoethylamino)-3-(4-(trifluoromethyl)phenyl)propyl)acetamide] | > 10000 |
| C[C@@H](c1ccc(C(F)(F)F)cc1)[C@H](N)CNc1ncc(-c2ccc3c(c2)CC(=O)N3)s1 [Example 92, 5-(2-((2S,3S)-2-Amino-3-(4-(trifluoromethyl)phenyl)butylamino)thiazol-5-yl)indolin-2-one methane sulfonic acid salt] | < 50 |
| COc1cc(C[C@H](N)CNc2ncc(-c3ccc4c(c3)CC(=O)N4)s2)ccc1C(F)(F)F [Example 206, 5-(2-((S)-2-amino-3-(3-methoxy-4-(trifluoromethyl)phenyl)propylamino)thiazol-5-yl)indolin-2-one] | < 50 |
| Cn1c(=O)[nH]c2ccc(-c3sc(NC[C@@H](N)Cc4ccc(C(F)(F)F)cc4)nc3C(F)(F)CO)cc21 [Example 136, 6-(2-((S)-2-Amino-3-(4-(trifluoromethyl)phenyl)propylamino)-4-(1,1-difluoro-2-hydroxyethyl)thiazol-5-yl)-1-methyl-1H-benzo[d]imidazol-2(3H)-one] | 1000 to 10000 |
| N[C@H](CNc1nc(-c2cccc(F)c2F)c(-c2ccc3cnccc3c2)s1)Cc1ccc(C(F)(F)F)cc1 [Example 100, N—((S)-2-Amino-3-(4-(trifluoromethyl)phenyl)propyl)-4-(2,3-difluorophenyl)-5-(isoquinolin-6-yl)thiazol-2-amine] | 50 to 1000 |
| N[C@H](CNc1ncc(-c2ccc3[nH]c(=O)sc3c2)s1)Cc1ccc(C(F)(F)F)cc1 [Example 43, 6-(2-((S)-2-amino-3-(4-(trifluoromethyl)phenyl)propylamino)thiazol-5-yl)benzo[d]thiazol-2(3H)-one] | < 50 |
| N[C@H](CNc1ncc(-c2ccc3cnccc3c2)s1)Cc1ccc(Cl)c(F)c1 [Example 85, N—((S)-2-Amino-3-(4-chloro-3-fluorophenyl)propyl)-5-(isoquinolin-6-yl)thiazol-2-amine] | < 50 |
| N[C@H](CNc1ncc(-c2ccc3[nH]c(=O)sc3c2)s1)Cc1c[nH]c2ccccc12 [Example 35, 6-(2-((S)-2-amino-3-(1H-indol-3-yl)propylamino)thiazol-5-yl)benzo[d]thiazol-2(3H)-one] | 50 to 1000 |

| SMILES | IC50 [nM] |
| --- | --- |
| C/C=C/[C@@H](c1ccc(C(F)(F)F)cc1)[C@H](N)CNc1ncc(-c2ccc3c(c2)CC(=O)N3)s1 [Example 155, 5-(2-((2S,3S,E)-2-amino-3-(4-(trifluoromethyl)phenyl)hex-4-enylamino)thiazol-5-yl)indolin-2-one] | < 50 |
| CC1C(=O)Nc2ccc(-c3cnc(NC[C@@H](N)Cc4ccccc4)s3)cc21 (stereo partly drawn) [Example 70, 5-(2-((S)-2-amino-3-phenylpropylamino)thiazol-5-yl)-3-methylindolin-2-one] | 1000 to 10000 |
| N[C@H](CNc1ncc(-c2ccc3c(c2)C(F)(F)C(=O)N3)s1)Cc1ccc(C(F)(F)F)cc1 [Example 41, 5-(2-((S)-2-amino-3-(4-(trifluoromethyl)phenyl)propylamino)thiazol-5-yl)-3,3-difluoroindolin-2-one] | 50 to 1000 |
| COCc1nc(NC[C@@H](N)Cc2c[nH]c3ccccc23)sc1-c1nc2ccncc2s1 [Example 27, N—((S)-2-amino-3-(1H-indol-3-yl)propyl)-4-(methoxymethyl)-5-(thiazolo[5,4-c]pyridin-2-yl)thiazol-2-amine] | 50 to 1000 |
| N[C@H](CNc1nc(C(=O)NCCO)c(-c2ccc3cnccc3c2)s1)Cc1ccc(C(F)(F)F)cc1 [Example 119, 2-((S)-2-Amino-3-(4-(trifluoromethyl)phenyl)-propylamino)-N-(2-hydroxyethyl)-5-(isoquinolin-6-yl)thiazole-4-carboxamide] | 1000 to 10000 |
| N[C@H](CNc1ncc(-c2ccc3cnccc3c2)s1)Cc1ccc(C(F)(F)F)c(F)c1 [Example 83, N—((S)-2-Amino-3-(3-fluoro-4-(trifluoromethyl)phenyl)propyl)-5-(isoquinolin-6-yl)thiazol-2-amine] | < 50 |
| C[C@@H](c1ccccc1)[C@H](N)CNc1ncc(-c2ccc3[nH]c(=O)oc3c2)s1 [Example 88, 6-(2-((2S,3S)-2-Amino-3-phenylbutylamino)thiazol-5-yl)benzo[d]oxazol-2(3H)-one] | 1000 to 10000 |
| N[C@H](CNc1ncc(-c2ccc3[nH]c(=O)[nH]c3c2)s1)Cc1ccc(C(F)(F)F)cc1 [Example 193, 5-(2-((S)-2-amino-3-(4-(trifluoromethyl)-phenyl)propylamino)thiazol-5-yl)-1H-benzo[d]imidazol-2(3H)-one] | 50 to 1000 |
| N[C@H](CNc1nc(C#CC2(O)CCCC2)c(-c2ccc3cnccc3c2)s1)Cc1ccc(C(F)(F)F)cc1 [Example 148, 1-(2-(2-((S)-2-amino-3-(4-(trifluoromethyl)phenyl)propylamino)-5-(isoquinolin-6-yl)thiazol-4-yl)ethynyl)cyclopentanol] | 50 to 1000 |
| C[C@@H](c1ccc(C(F)(F)F)cc1)[C@H](N)CNc1ncc(-c2cnc3c(c2)CC(=O)N3)s1 [Example 228, 5-(2-((2S,3S)-2-amino-3-(4-(trifluoromethyl)phenyl)butylamino)thiazol-5-yl)-1H-pyrrolo[2,3-b]pyridin-2(3H)-one] | 50 to 1000 |
| N[C@H](CNc1nc(C(F)(F)CO)c(-c2ccc3cnccc3c2)s1)Cc1ccc(C(F)(F)F)cc1 [Example 134, 2-(2-((S)-2-Amino-3-(4-(trifluoromethyl)phenyl)-propylamino)-5-(isoquinolin-6-yl)thiazol-4-yl)-2,2-difluoroethanol] | 50 to 1000 |
| N[C@H](CNc1nc(C#CCO)c(-c2ccc3cnccc3c2)s1)Cc1ccc(C(F)(F)F)cc1 [Example 140, 3-(2-((S)-2-amino-3-(4-(trifluoromethyl)phenyl)propylamino)-5-(isoquinolin-6-yl)thiazol-4-yl)prop-2-yn-1-ol] | < 50 |
| N[C@H](CNc1ncc(-c2ccc3c(c2)OCO3)s1)Cc1c[nH]c2ccccc12 [Example 251, N—((S)-2-amino-3-(1H-indol-3-yl)propyl)-5-(benzo[d][1,3]dioxol-5-yl)thiazol-2-amine] | 1000 to 10000 |
| N[C@H](CNc1nc(-c2ccccc2F)c(-c2ccc3cnccc3c2)s1)Cc1ccc(C(F)(F)F)cc1 [Example 105, N—((S)-2-Amino-3-(4-(trifluoromethyl)phenyl)propyl)-4-(2-fluorophenyl)-5-(isoquinolin-6-yl)thiazol-2-amine] | < 50 |
| NC(CNc1ncc(-c2ccc3cnccc3c2)s1)Cc1ccc(OC(F)(F)F)cc1 (stereo not shown) [Example 189, N-(-2-amino-3-(4-(trifluoromethoxy)phenyl)propyl)-5-(isoquinolin-6-yl)thiazol-2-amine] | < 50 |
| C[C@H](Nc1ncc(-c2ccc3cnccc3c2)s1)[C@@H](N)Cc1ccc(C(F)(F)F)cc1 [Example 235, N-((2S,3S)-3-amino-4-(4-(trifluoromethyl)phenyl)butan-2-yl)-5-(isoquinolin-6-yl)thiazol-2-amine] | 50 to 1000 |
| N[C@H](CNc1ncc(-c2cc3c(cc2F)NC(=O)C3)s1)Cc1ccc(C(F)(F)F)cc1 [Example 214, 5-(2-((S)-2-amino-3-(4-(trifluoromethyl)phenyl)propylamino)thiazol-5-yl)-6-fluoroindolin-2-one] | < 50 |
